Measurements from patent publication US8029979B2, “Method for determining the substrate specificity of an enzyme” (JPT Peptide Technologies GmbH, priority 2001, dated 2011).
Ends that are not written are not given here. BA1 = not defined here

What was measured:
Format in all cases: biochemical
protein kinase A [1] = target: T1, protein kinase A (Bos taurus, UniProt P00517); test: Phosphorylation of glass-immobilised peptide array by protein kinase A (FIG. 9, Example 33); conditions: protein kinase A 10 U/mL, ATP/γ32P-ATP, 30 min at 25° C., maleinimido-functionalised glass, PhosphorImager
T1 construct: purchased Sigma P26452 as printed
Experimental: FIG. 9. Precisely 43 serine and/or threonine-containing peptides (potential substrate peptides for kinases) and the corresponding control peptides, each modified at the N-terminus with the dipeptide cysteinyl-β-alanine, were coupled to a maleinimido-functionalised glass surface by a Michael addition (Example 18). In the control peptides the serine and/or threonine residues were replaced by alanine, the sequence remaining otherwise the same. The application was carried out using a NanoPlotter from Gesim. The spot-to-spot distance was 1 mm and 0.8 nL of a peptide solution in 100 mM PBS buffer pH 7.8, containing 20% glycerin, was applied per spot. Here a filled circle represents a serine- or threonine-containing potential substrate peptide and an open circle stands for a control peptide. Three identical subarrays were applied to the glass surface. The numbering of the spots can be seen in FIG. 9C, the sequences of the peptides used are obtained from Example 18. […] After incubation for 30 min at 25° C. the phosphorylation of the corresponding peptides was detected using a FUJIFILM PhosphorImager (Example 39). […]
(§1) After drying the glass surface the quantity of radioactive phosphate incorporated in the glass-surface-bound peptides was determined using a PhosphorImager system (FLA-3000, FUJIFILM). […]

protein kinase C = test: Phosphorylation of glass-immobilised peptide array by protein kinase C (FIG. 8, Example 32); conditions: protein kinase C 10 U/mL, ATP/γ32P-ATP, 30 min at 25° C., maleinimido-functionalised glass, PhosphorImager
Experimental: FIG. 8. Precisely 43 serine and/or threonine-containing peptides (potential substrate peptides for kinases) and the corresponding control peptides, each modified at the N-terminus with the dipeptide cysteinyl-β-alanine, were coupled to a maleinimido-functionalised glass surface by a Michael addition (Example 18). In the control peptides the serine and/or threonine residues were replaced by alanine, the sequence remaining otherwise the same. The application was carried out using a NanoPlotter from Gesim. The spot-to-spot distance was 1 mm and 0.8 nL of a peptide solution in 100 mM PBS buffer pH 7.8, containing 20% glycerin, was applied per spot. Here a filled circle represents a serine- or threonine-containing potential substrate peptide and an open circle stands for a control peptide. Three identical subarrays were applied to the glass surface. The numbering of the spots can be seen in FIG. 8C, the sequences of the peptides used are obtained from Example 18. After application of the peptides, the modified glass surface was first pre-incubated for 10 minutes using 10 ml of 100 μM ATP solution in 50 mM of sodium phosphate buffer pH 7.5. The modified glass surface was then covered with a second glass surface and Protein kinase C (10 U/mL) together with ATP/γ^32P-ATP mixture (100 μM/mL; 100 μCi/mL) was then inserted into the intermediate space formed thereby by means of capillary force. After incubation for 30 min at 25° C. the phosphorylation of the corresponding peptides was detected using a FUJIFILM PhosphorImager (Example 38). The spots having higher signal intensity in all three subarrays were assigned to the corresponding peptides phosphorylated by the protein kinase C. […] It is thus clear that such an assembly is suitable for characterising the substrate specificity of a kinase, such as protein kinase C, for example.
Precisely 43 serine- and/or threonine-containing peptides (potential substrate peptides for kinases) and the corresponding control peptides, each modified at the N-terminus with the dipeptide cysteinyl-β-alanine, were coupled to a maleinimido-functionalised glass surface by a Michael addition (see Example 18). The numbering of the spots can be seen from FIG. 8C and the sequences of the peptides used are obtained from Example 18. After application of the peptide, the modified glass surface was first pre-incubated using 10 mL of 100 μM ATP […] solution in 50 mM sodium phosphate buffer pH 7.5 for […] minutes. The modified glass surface was then covered with a cover glass and protein kinase C (10 U/mL) together with ATP/γ-^32P-ATP mixture (100 μM/mL; 100 μCi/mL) was incorporated in the intermediate space formed by means of capillary force. Incubation was then carried out for 30 min at 25° C. […]
as §1

protein kinase A [2] = target: T1, protein kinase A; test: Incubation of modified glass surface (11760 spots) with protein kinase A (FIG. 6, Example 28); conditions: bromoketone-functionalised glass, thioamide linkage, protein kinase A 10 U/mL, 30 min at 25° C.
Experimental: FIG. 6. A glass surface modified with the peptide Leu-Arg-Arg-Ala-Ser-Leu-Gly-thioamide (see Example 24) amino acid sequence was dissolved in 200 mM sodium phosphate buffer pH 5.5 and at room temperature respectively 1 nL of this solution in an assembly of 70 rows and 168 gaps (total 11760) was applied to the bromoketone-functionalised glass surfaces (Example 10) using a NanoPlotter from Gesim. The spot-to-spot distance was 0.3 mm. The glass surfaces thus treated were then subjected to microwave treatment for 2 min and then incubated for 3 hours at room temperature. Pre-incubation was then carried out for 10 minutes using 10 ml of 100 μM ATP solution in 50 mM of sodium phosphate buffer pH 7.5. […] After incubation for 30 min at 25° C. the phosphorylation of the corresponding peptides was detected using a FUJIFILM PhosphorImager. […] It is furthermore clear that the resolution of the PhosphorImager used here is sufficient to analyse more than 11000 measurement points per biochip. […]
After drying the glass surface the quantity of radioactive phosphate incorporated in the glass-surface-bound peptides was determined using a PhosphorImager system (FLA-3000, FUJIFILM) (see FIG. 6).

| Substance | recognised and phosphorylated by protein kinase C on the modified glass surface (protein kinase C) | other results |
| --- | --- | --- |
| Arg-Arg-Ile-Ser-Lys-Asp-Asn-Pro-Asp-Tyr-Gln-Gln-Asp-BA1-Cys-NH2 (RRISKDNPDYQQD-{BA1-Cys-NH2}; reading uncertain; also: printed as Arg-Arg-Ile-Ser-Lys-Asp-Asn-Pro-Asp-Tyr-Gln-Gln-Asp-BA1-Cys-NH2) [peptide 83] | – | recognised and phosphorylated by protein kinase A on the modified glass surface (protein kinase A [1]): not phosphorylated |
| Cys-BA1-Ala-Lys-Arg-Arg-Arg-Leu-Ser-Ser-Leu-Arg-Ala-NH2 ({Cys-BA1}-AKRRRLSSLRA-NH2; reading uncertain; also: printed as Cys-BA1-Ala-Lys-Arg-Arg-Arg-Leu-Ser-Ser-Leu-Arg-Ala-NH2) [compound 3] | recognised and phosphorylated | – |
| Cys-BA1-Pro-Leu-Ser-Arg-Thr-Leu-Ser-Val-Ala-Ala-Lys-Lys-NH2 ({Cys-BA1}-PLSRTLSVAAKK-NH2; reading uncertain; also: printed as Cys-BA1-Pro-Leu-Ser-Arg-Thr-Leu-Ser-Val-Ala-Ala-Lys-Lys-NH2) [compound 23] | recognised and phosphorylated | – |
| Cys-BA1-Pro-Lys-Asp-Pro-Ser-Gln-Arg-Arg-Arg-NH2 ({Cys-BA1}-PKDPSQRRR-NH2; reading uncertain; also: printed as Cys-BA1-Pro-Lys-Asp-Pro-Ser-Gln-Arg-Arg-Arg-NH2) [compound 43] | recognised and phosphorylated | – |
| Leu-Arg-Arg-Ala-Ser-Leu-Gly-thioamide (LRRASLG-thioamide) | – | linking of the immobilised kinase substrate tolerated by protein kinase A (protein kinase A [2]): tolerated by the protein kinase A |

The next lines start with results.

| recognised and phosphorylated by protein kinase C on the modified glass surface (protein kinase C) | Substance | other results |
| --- | --- | --- |
| recognised and phosphorylated | Cys-BA1-Gln-Lys-Arg-Pro-Ser-Gln-Arg-Ser-Lys-Tyr-Leu-NH2 ({Cys-BA1}-QKRPSQRSKYL-NH2; reading uncertain; also: printed as Cys-BA1-Gln-Lys-Arg-Pro-Ser-Gln-Arg-Ser-Lys-Tyr-Leu-NH2) [compound 27] | – |
| recognised and phosphorylated | Cys-BA1-Lys-Lys-Arg-Phe-Ser-Phe-Lys-Lys-Ser-Phe-Lys-Leu-NH2 ({Cys-BA1}-KKRFSFKKSFKL-NH2; reading uncertain; also: printed as Cys-BA1-Lys-Lys-Arg-Phe-Ser-Phe-Lys-Lys-Ser-Phe-Lys-Leu-NH2) [compound 41] | – |
